# In patent US20030139362A1, “Methods of treating cognitive decline disease conditions with androgens” (priority 2000, published 2003):
# Key:
# female apoE4 mice = settings: for probe trial (platform removed): time searching in the target quadrant: female apoE4 mice, P<0.05, Tukey-Kramer test, placebo-treated mice did not
# Description: We tested whether administration of androgens might be successful for improving cognition in apoE4 female mice.
# [1] = plasma hormone levels by radioimmunoassay (RIA); type: in vivo; settings: testosterone-treated female mice, subcutaneous Silastic capsule, after the behavioral testing
# women = settings: literature: Sherwin 1988 (surgically menopausal women); Yaffe 2000 (women with apoE4); cited from earlier work
# [2] = six-month-old female apoE4 mice, subcutaneous Silastic capsule, tested eight days after implantation
Compound,probe trial (platform removed): time searching in the target quadrant (female apoE4 mice),memory retention in the water maze (female apoE4 mice; [2]),plasma testosterone levels [1],"learning in the water maze (hidden platform sessions) (female apoE4 mice; six-month-old female apoE4 mice, subcutaneous Silastic capsule, tested eight days after implantation, P<0.05 vs placebo)",cognition / cognitive function in women (women)
C[C@]12CCC(=O)C[C@@H]1CC[C@@H]1[C@@H]2CC[C@]2(C)[C@@H](O)CC[C@@H]12 [dihydrotestosterone],spent significantly more time searching in the target quadrant than in any of the other quadrants,improved memory retention,–,–,–
C[C@]12CC[C@H]3[C@@H](CCC4=CC(=O)CC[C@@]43C)[C@@H]1CC[C@@H]2O [testosterone],spent significantly more time searching in the target quadrant than in any of the other quadrants,improved memory retention,5.61 ± 0.74 ng/mL,improved learning,improved cognition in surgically menopausal women
Estrogen,–,–,–,–,failed to preserve cognitive function in women with apoE4
